# Measurements as given in patent publication US7989464B2, “mGluR1 antagonists as therapeutic agents” (Schering Corporation, priority 2004, dated 2011).
# Like-named read-outs stand apart in the source and are kept apart here.
# Biological target: T1, hmGluR1 receptor (Homo sapiens, UniProt Q13255)
# T1 construct: expressed in transfected cells
# Experiment: IC50 determination: intracellular calcium mobilization (FLIPR) upon Quisqualate stimulation in CHO cells stably expressing hmGluR1
# Format: cell-based
# Conditions: against Quisqualate 1 μM (EC80)
# How it was run: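 CHO cells stably expressing hmGluR1 were kept overnight in DMEM high glucose with GPT and 1 mM pyruvate, then loaded 2 h with Calcium 3 dye.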
# [1] = FLIPR calcium mobilization, read-out: IC50 Class
# [2] = class symbols, read-out: mGIuR 1 IC50
# T1 sequence (Q13255 19-1194): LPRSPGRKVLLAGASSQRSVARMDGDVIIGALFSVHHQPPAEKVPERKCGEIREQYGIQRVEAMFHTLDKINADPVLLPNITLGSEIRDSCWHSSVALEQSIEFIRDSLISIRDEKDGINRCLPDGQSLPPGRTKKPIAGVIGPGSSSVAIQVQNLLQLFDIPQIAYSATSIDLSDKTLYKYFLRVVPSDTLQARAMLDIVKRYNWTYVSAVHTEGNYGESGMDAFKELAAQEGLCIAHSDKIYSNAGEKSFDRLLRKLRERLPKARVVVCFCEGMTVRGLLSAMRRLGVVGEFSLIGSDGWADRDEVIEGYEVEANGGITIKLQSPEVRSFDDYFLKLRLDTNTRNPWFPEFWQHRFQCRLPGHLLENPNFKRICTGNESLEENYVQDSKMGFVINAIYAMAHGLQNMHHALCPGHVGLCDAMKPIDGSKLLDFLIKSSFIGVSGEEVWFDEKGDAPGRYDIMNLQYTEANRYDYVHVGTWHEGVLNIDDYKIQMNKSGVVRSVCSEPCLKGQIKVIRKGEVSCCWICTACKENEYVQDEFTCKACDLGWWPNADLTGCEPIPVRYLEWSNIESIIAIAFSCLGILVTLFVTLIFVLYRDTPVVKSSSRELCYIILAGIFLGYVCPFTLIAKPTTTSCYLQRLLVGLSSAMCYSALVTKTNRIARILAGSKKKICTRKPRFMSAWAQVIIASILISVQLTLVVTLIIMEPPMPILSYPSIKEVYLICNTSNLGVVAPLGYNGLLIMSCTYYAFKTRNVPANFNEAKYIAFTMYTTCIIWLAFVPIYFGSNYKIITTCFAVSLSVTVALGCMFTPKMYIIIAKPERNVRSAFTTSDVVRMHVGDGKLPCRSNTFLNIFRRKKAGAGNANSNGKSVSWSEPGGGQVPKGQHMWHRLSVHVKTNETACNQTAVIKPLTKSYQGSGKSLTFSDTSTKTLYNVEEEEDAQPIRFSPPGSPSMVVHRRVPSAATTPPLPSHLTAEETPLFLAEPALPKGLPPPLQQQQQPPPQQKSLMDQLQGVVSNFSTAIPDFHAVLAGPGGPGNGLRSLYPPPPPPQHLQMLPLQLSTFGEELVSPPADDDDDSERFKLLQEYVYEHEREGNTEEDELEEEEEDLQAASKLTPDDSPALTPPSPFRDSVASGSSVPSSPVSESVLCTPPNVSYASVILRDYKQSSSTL
Structure (SMILES),IC50 [1] [nM],IC50 [2] [nM]
C=CCN(C)c1ccnc2sc3c(=O)n(-c4ccc(Br)cc4)cnc3c12 [28EB],50 to 150,
CN(CCO)c1ccnc2sc3c(=O)n(-c4ccc(Br)cc4)cnc3c12 [28HI],< 50,
COc1ccnc2sc3c(=O)n(-c4ccc5c(c4)CCO5)cnc3c12 [25F],150 to 1000,
Cc1ccc(-n2cnc3c(sc4nccc(NC(C)(C)C)c43)c2=O)cc1 [28EO],150 to 1000,
CNc1ccnc2sc3c(=O)n(-c4ccc5c(c4)OCCO5)cnc3c12 [28BZ],< 50,
Cc1ccc(-n2cnc3c(sc4nccc(NC(C)(C)CO)c43)c2=O)cc1 [28EX],50 to 150,
C[C@@H](O)CNc1ccnc2sc3c(=O)n(-c4ccc(Br)cc4)cnc3c12 [28HB],< 50,
COc1c(Br)cnc2sc3c(=O)n(-c4ccc(Cl)cc4)cnc3c12 [28EH],< 50,
Cc1ccc(-n2cnc3c(sc4nccc(NCc5cccs5)c43)c2=O)cc1 [28EQ],150 to 1000,
COc1cccc(-n2cnc3c(sc4nccc(N(C)C)c43)c2=O)c1 [7AA],,< 50
CNc1ccnc2sc3c(=O)n(-c4cccc(Cl)c4)cnc3c12 [28CC],50 to 150,
COc1ccnc2sc3c(=O)n(-c4ccc5c(c4)OCO5)cnc3c12 [28FY],> 1000,
CN(C)c1c(C#N)cnc2sc3c(=O)n(C4CCCCC4)cnc3c12 [compound 46],,< 50
COc1ccc(-n2cnc3c(sc4nccc(Br)c43)c2=O)cc1 [compound 150],,150 to 1000
CN(C)c1ccnc2sc3c(=O)n(C(C)(C)C)cnc3c12 [15P],,150 to 1000
COc1ccc(-n2cnc3c(sc4nccc(NC5CC5)c43)c2=O)cc1 [28AL],,< 50
Cc1ccc(-n2cnc3c(sc4nccc(NCCC(C)O)c43)c2=O)cc1 (stereo not shown) [28CY],< 50,
CCN(C)c1ccnc2sc3c(=O)n(-c4cccc(Cl)c4)cnc3c12 [28CA],< 50,
COc1ccc(-n2cnc3c(sc4nccc(N(C)N)c43)c2=O)cc1 [28DO],< 50,
C#CC(CC)(CC)Nc1ccnc2sc3c(=O)n(-c4ccc(C)cc4)cnc3c12 [28EU],150 to 1000,
Cc1cc(-n2cnc3c(sc4nccc(N(C)C)c43)c2=O)no1 [15AE],,50 to 150
CN(C)c1ccc(-n2cnc3c(sc4nccc(N(C)C)c43)c2=O)cc1 [7AJ],,< 50
CNc1ccnc2sc3c(=O)n(-c4ccc5ncsc5c4)cnc3c12 [7BZ],,< 50
CNc1c(Cl)cnc2sc3c(=O)n(C4CCCCC4)cnc3c12 [compound 42],,50 to 150
O=c1c2sc3ncccc3c2ncn1-c1ccccc1 [compound 11],,> 1000
O=c1c2sc3nccc(N4CC[C@H](O)C4)c3c2ncn1C1CCCCC1 [28N],,> 1000

# Continued, values first:
IC50 [1] [nM],IC50 [2] [nM],Structure (SMILES)
< 50,,CN(C)c1ccnc2sc3c(=O)n(-c4ccc(C5CC5)c(F)c4)cnc3c12 [137G]
,150 to 1000,CN(C)c1cncc2sc3c(=O)n(-c4ccc5scnc5c4)cnc3c12 [37B]
150 to 1000,,COc1ccc(-n2cnc3c(sc4nc(C)nc(N)c43)c2=O)cc1 [95EU]
,150 to 1000,COc1ccc(-n2cnc3c4c(N(C)C)ccnc4n(C)c3c2=O)cc1 [134B]
,> 1000,CN(C)c1cncc2sc3c(=O)n(-c4ccc(O)cc4)cnc3c12 [37H]
150 to 1000,,CN(C)c1cccc2sc3c(=O)n(-c4cc(F)cc(F)c4)cnc3c12 [103Q]
,50 to 150,CCc1nc2c(sc3nccc(N(C)C)c32)c(=O)n1-c1ccc(OC)cc1 [116E]
> 1000,,COCCn1cnc2c(sc3ncnc(NC4CC4)c32)c1=O [95EC]
,150 to 1000,Cc1ccc(-n2c(C(F)(F)F)nc3c(sc4nccc(N(C)C)c43)c2=O)cc1 [117A]
,> 1000,Cc1ccc(-n2cnc3c([nH]c4nccc(N(C)C)c43)c2=O)cc1 [135A]
,150 to 1000,CN(C)c1cccc2sc3c(=O)n(C4CCCCC4)cnc3c12 [103B]
,50 to 150,CCc1cc(N(C)C)c2c(n1)sc1c(=O)n(-c3ccc(C)cc3)cnc12 [87B]
< 50,,Cc1ccc(-n2cnc3c(sc4nc(C)nc(N)c43)c2=O)cc1 [95ET]
,150 to 1000,CCCCc1nc2c(sc3nccc(N(C)C)c32)c(=O)n1-c1ccc(C)cc1 [116C]
